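GI50 is the concentration that inhibits growth by half. TGI: total growth inhibition.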
Tests used:
Assay in all cases: NCI-60 cell line screen, 384-well format
786-0 renal = system: 786-0 renal
A498 renal = system: A498 renal
A549 NSCLC = system: A549 NSCLC
ACHN renal = system: ACHN renal
BT-549 breast = system: BT-549 breast
CAKI-1 renal = system: CAKI-1 renal
CCRF-CEM leukemia = system: CCRF-CEM leukemia
COLO 205 colon = system: COLO 205 colon
DU-145 prostate = system: DU-145 prostate
EKVX NSCLC = system: EKVX NSCLC
HCC-2998 colon = system: HCC-2998 colon
HCT-116 colon = system: HCT-116 colon
HCT-15 colon = system: HCT-15 colon
HL-60(TB) leukemia = system: HL-60(TB) leukemia
HOP-62 NSCLC = system: HOP-62 NSCLC
HOP-92 NSCLC = system: HOP-92 NSCLC
HS 578T breast = system: HS 578T breast
HT29 colon = system: HT29 colon
IGROV1 ovarian = system: IGROV1 ovarian
K-562 leukemia = system: K-562 leukemia
KM12 colon = system: KM12 colon
LOX IMVI melanoma = system: LOX IMVI melanoma
M14 melanoma = system: M14 melanoma
MALME-3M melanoma = system: MALME-3M melanoma
MCF7 breast = system: MCF7 breast
MDA-MB-231 breast = system: MDA-MB-231 breast
MDA-MB-435 melanoma = system: MDA-MB-435 melanoma
MDA-MB-468 breast = system: MDA-MB-468 breast
MOLT-4 leukemia = system: MOLT-4 leukemia
NCI-H226 lung = system: NCI-H226 lung
NCI-H23 lung = system: NCI-H23 lung
NCI-H322M lung = system: NCI-H322M lung
NCI-H460 NSCLC = system: NCI-H460 NSCLC
NCI-H522 lung = system: NCI-H522 lung
NCI/ADR-RES ovarian = system: NCI/ADR-RES ovarian
OVCAR-3 ovarian = system: OVCAR-3 ovarian
OVCAR-4 ovarian = system: OVCAR-4 ovarian
OVCAR-8 ovarian = system: OVCAR-8 ovarian
PC-3 prostate = system: PC-3 prostate
RPMI-8226 leukemia = system: RPMI-8226 leukemia
RXF 393 renal = system: RXF 393 renal
SF-268 CNS = system: SF-268 CNS
SF-295 CNS = system: SF-295 CNS
SF-539 CNS = system: SF-539 CNS
SK-MEL-28 melanoma = system: SK-MEL-28 melanoma
SK-MEL-5 melanoma = system: SK-MEL-5 melanoma
SK-OV-3 ovarian = system: SK-OV-3 ovarian
SN12C renal = system: SN12C renal
SNB-19 CNS = system: SNB-19 CNS
SNB-75 CNS = system: SNB-75 CNS
SW-620 colon = system: SW-620 colon
T-47D breast = system: T-47D breast
TK-10 renal = system: TK-10 renal
U251 glioblastoma = system: U251 glioblastoma
UACC-257 melanoma = system: UACC-257 melanoma
UACC-62 melanoma = system: UACC-62 melanoma
UO-31 renal = system: UO-31 renal

Question: With `Cn1ncc(C#N)c1-c1ccc2c(c1)CN([C@H](CN)Cc1cccc(F)c1)C2=O` as the molecule, how does the GI50 ([…]-0 renal) read?
Answer: 0.324 µM

Question: And the TGI (786-0 renal)?
Answer: 21.2 µM

Question: And the GI50 (A498 renal)?
Answer: 0.269 µM

Question: And the TGI (A498 renal)?
Answer: 16.7 µM

Question: And the GI50 (A549 NSCLC)?
Answer: 12.2 µM

Question: And the TGI (A549 NSCLC)?
Answer: 75.1 µM

Question: And the GI50 (ACHN renal)?
Answer: 17.3 µM

Question: What about the TGI (ACHN renal) of the same molecule?
Answer: 93.9 µM

Question: What about the GI50 (BT-549 breast) of the same molecule?
Answer: 0.943 µM

Question: And the TGI (BT-549 breast)?
Answer: 17.9 µM

Question: And the GI50 (CAKI-1 renal)?
Answer: 5.91 µM

Question: And the TGI (CAKI-1 renal)?
Answer: 40.8 µM

Question: What about the GI50 (CCRF-CEM leukemia) of the same molecule?
Answer: 0.675 µM

Question: And the TGI (CCRF-CEM leukemia)?
Answer: 14.6 µM

Question: What about the GI50 (COLO 205 colon) of the same molecule?
Answer: 4.91 µM

Question: What about the TGI (COLO 205 colon) of the same molecule?
Answer: 25.4 µM

Question: What about the GI50 (DU-145 prostate) of the same molecule?
Answer: 16.5 µM

Question: And the TGI (DU-145 prostate)?
Answer: 44.9 µM

Question: And the GI50 (EKVX NSCLC)?
Answer: 11.1 µM

Question: And the TGI (EKVX NSCLC)?
Answer: 40.3 µM

Question: And the GI50 (HCC-2998 colon)?
Answer: 11 µM

Question: What about the TGI (HCC-2998 colon) of the same molecule?
Answer: 47.2 µM

Question: What about the GI50 (HCT-116 colon) of the same molecule?
Answer: 10.8 µM

Question: And the TGI (HCT-116 colon)?
Answer: 23.2 µM

Question: What about the GI50 (HCT-15 colon) of the same molecule?
Answer: 16.3 µM

Question: And the TGI (HCT-15 colon)?
Answer: > 100 µM

Question: And the GI50 (HL-60(TB) leukemia)?
Answer: 15.9 µM

Question: What about the TGI (HL-60(TB) leukemia) of the same molecule?
Answer: 29.5 µM

Question: What about the GI50 (HOP-62 NSCLC) of the same molecule?
Answer: 23 µM

Question: And the TGI (HOP-62 NSCLC)?
Answer: 71.1 µM

Question: And the GI50 (HOP-92 NSCLC)?
Answer: 6.45 µM

Question: What about the TGI (HOP-92 NSCLC) of the same molecule?
Answer: 31.4 µM

Question: And the GI50 (HS 578T breast)?
Answer: 1.57 µM

Question: What about the TGI (HS 578T breast) of the same molecule?
Answer: 19.8 µM

Question: And the GI50 (HT29 colon)?
Answer: 4.87 µM

Question: And the TGI (HT29 colon)?
Answer: 94.5 µM

Question: And the GI50 (IGROV1 ovarian)?
Answer: 0.0552 µM

Question: What about the TGI (IGROV1 ovarian) of the same molecule?
Answer: 10.4 µM

Question: What about the GI50 (K-562 leukemia) of the same molecule?
Answer: 15.3 µM

Question: And the TGI (K-562 leukemia)?
Answer: 43.7 µM

Question: And the GI50 (KM12 colon)?
Answer: 0.841 µM

Question: What about the TGI (KM12 colon) of the same molecule?
Answer: 20.4 µM

Question: And the GI50 (LOX IMVI melanoma)?
Answer: 27.6 µM

Question: What about the TGI (LOX IMVI melanoma) of the same molecule?
Answer: > 100 µM

Question: And the GI50 (M14 melanoma)?
Answer: 11.2 µM

Question: And the TGI (M14 melanoma)?
Answer: 26.8 µM

Question: And the GI50 (MALME-3M melanoma)?
Answer: 1.76 µM

Question: And the TGI (MALME-3M melanoma)?
Answer: 14.8 µM

Question: And the GI50 (MCF7 breast)?
Answer: 0.498 µM

Question: And the TGI (MCF7 breast)?
Answer: 16.3 µM

Question: What about the GI50 (MDA-MB-231 breast) of the same molecule?
Answer: 21.8 µM

Question: And the TGI (MDA-MB-231 breast)?
Answer: 74.7 µM

Question: And the GI50 (MDA-MB-435 melanoma)?
Answer: 15.8 µM

Question: And the TGI (MDA-MB-435 melanoma)?
Answer: 43.3 µM

Question: And the GI50 (MDA-MB-468 breast)?
Answer: 0.0967 µM

Question: What about the TGI (MDA-MB-468 breast) of the same molecule?
Answer: 3.28 µM

Question: What about the GI50 (MOLT-4 leukemia) of the same molecule?
Answer: 0.129 µM

Question: What about the TGI (MOLT-4 leukemia) of the same molecule?
Answer: 2.38 µM

Question: What about the GI50 (NCI-H226 lung) of the same molecule?
Answer: 14.4 µM

Question: And the TGI (NCI-H226 lung)?
Answer: 39.1 µM

Question: And the GI50 (NCI-H23 lung)?
Answer: 14.6 µM

Question: And the TGI (NCI-H23 lung)?
Answer: 34.8 µM

Question: What about the GI50 (NCI-H322M lung) of the same molecule?
Answer: 16.9 µM

Question: And the TGI (NCI-H322M lung)?
Answer: 70.2 µM

Question: What about the GI50 (NCI-H460 NSCLC) of the same molecule?
Answer: 0.582 µM

Question: What about the TGI (NCI-H460 NSCLC) of the same molecule?
Answer: 33.3 µM

Question: What about the GI50 (NCI-H522 lung) of the same molecule?
Answer: 13.3 µM

Question: And the TGI (NCI-H522 lung)?
Answer: 27 µM

Question: And the GI50 (NCI/ADR-RES ovarian)?
Answer: > 100 µM

Question: And the TGI (NCI/ADR-RES ovarian)?
Answer: > 100 µM

Question: And the GI50 (OVCAR-3 ovarian)?
Answer: 11.8 µM

Question: And the TGI (OVCAR-3 ovarian)?
Answer: 32.4 µM

Question: What about the GI50 (OVCAR-4 ovarian) of the same molecule?
Answer: 35.7 µM

Question: What about the TGI (OVCAR-4 ovarian) of the same molecule?
Answer: > 100 µM

Question: What about the GI50 (OVCAR-8 ovarian) of the same molecule?
Answer: 24.3 µM

Question: What about the TGI (OVCAR-8 ovarian) of the same molecule?
Answer: > 100 µM

Question: And the GI50 (PC-3 prostate)?
Answer: 0.436 µM

Question: What about the TGI (PC-3 prostate) of the same molecule?
Answer: 16.7 µM

Question: What about the GI50 (RPMI-8226 leukemia) of the same molecule?
Answer: 12.9 µM

Question: What about the TGI (RPMI-8226 leukemia) of the same molecule?
Answer: 26.1 µM

Question: And the GI50 (RXF 393 renal)?
Answer: 0.433 µM

Question: What about the TGI (RXF 393 renal) of the same molecule?
Answer: 11.9 µM

Question: What about the GI50 (SF-268 CNS) of the same molecule?
Answer: 19.2 µM

Question: And the TGI (SF-268 CNS)?
Answer: 58.5 µM

Question: What about the GI50 (SF-295 CNS) of the same molecule?
Answer: 0.668 µM

Question: What about the TGI (SF-295 CNS) of the same molecule?
Answer: 16.5 µM

Question: What about the GI50 (SF-539 CNS) of the same molecule?
Answer: 0.394 µM

Question: And the TGI (SF-539 CNS)?
Answer: 33.4 µM

Question: What about the GI50 (SK-MEL-28 melanoma) of the same molecule?
Answer: 3.34 µM

Question: And the TGI (SK-MEL-28 melanoma)?
Answer: 33.4 µM

Question: What about the GI50 (SK-MEL-5 melanoma) of the same molecule?
Answer: 6.5 µM

Question: And the TGI (SK-MEL-5 melanoma)?
Answer: 20 µM

Question: What about the GI50 (SK-OV-3 ovarian) of the same molecule?
Answer: 0.534 µM

Question: And the TGI (SK-OV-3 ovarian)?
Answer: 23.2 µM

Question: What about the GI50 (SN12C renal) of the same molecule?
Answer: 17.6 µM

Question: And the TGI (SN12C renal)?
Answer: 65.9 µM

Question: What about the GI50 (SNB-19 CNS) of the same molecule?
Answer: 13.7 µM

Question: And the TGI (SNB-19 CNS)?
Answer: 67.3 µM

Question: And the GI50 (SNB-75 CNS)?
Answer: 0.299 µM

Question: What about the TGI (SNB-75 CNS) of the same molecule?
Answer: 14 µM

Question: And the GI50 (SW-620 colon)?
Answer: 27.5 µM

Question: What about the TGI (SW-620 colon) of the same molecule?
Answer: 82 µM

Question: What about the GI50 (T-47D breast) of the same molecule?
Answer: 0.0502 µM

Question: What about the TGI (T-47D breast) of the same molecule?
Answer: 19.5 µM

Question: And the GI50 (TK-10 renal)?
Answer: 10.1 µM

Question: And the TGI (TK-10 renal)?
Answer: 42.8 µM

Question: And the GI50 (U251 glioblastoma)?
Answer: 11.1 µM

Question: And the TGI (U251 glioblastoma)?
Answer: 68.7 µM

Question: What about the GI50 (UACC-257 melanoma) of the same molecule?
Answer: 12.5 µM

Question: What about the TGI (UACC-257 melanoma) of the same molecule?
Answer: 31.1 µM

Question: What about the GI50 (UACC-62 melanoma) of the same molecule?
Answer: 4.27 µM

Question: And the TGI (UACC-62 melanoma)?
Answer: 19.8 µM

Question: What about the GI50 (UO-31 renal) of the same molecule?
Answer: 13.4 µM

Question: And the TGI (UO-31 renal)?
Answer: 46.7 µM

Source: PubChem BioAssay (NCI)
